2 compounds from patent US20240016812A1, “COMPOSITION FOR PREVENTING, ALLEVIATING OR TREATING CANCER” (CKP Therapeutics, Inc., priority 2021, published 2024) can be followed below.

For assay [1], the system named is YUMC-C1 cell line. Particulars: 200 μM, drug alone.
Method: Each of the YUMC-C1, YUMC-H2 and YUMC-P1 cell lines of Example 1 was inoculated into 96-well plates at a density of 6×10^3 cells/well and then cultured overnight to a confluence of 90%. […] However, when hydroflumethiazide was used in combination with oxaliplatin or sorafenib, the treatment concentration of each of oxaliplatin and sorafenib was 30 μM. Thereafter, cell viability was measured using the MTT reagent. The absorbance was measured at 550 nm, and viable cells were counted using trypan blue staining.
Assay [2] has as its system YUMC-C1 cell line. Particulars: YUMC-C1 xenograft mice; oral, 13 times for 41 days; doses of Table 3; vs control group. Here is the method: (§1) 15 days after injection of each of the cell lines, when the tumor volume reached about 100 to 200 mm^3, mice having a tumor with the above volume were randomly grouped (n=10/group), and then each drug was administered to the mice 13 times for a total of 41 days under the conditions shown in Table 3 below. Then, the changes in tumor volume during this administration were measured, and the results of the measurement are shown in FIG. 3. In addition, the tumor was extracted and the net weight of the tumor was measured, and the results of the measurement are shown in FIG. 4. Here, nothing was administered to the control group.

Assay [3] deals with YUMC-H2 cell line. Nature of the assay: MTT cell viability of anticancer drug-resistant cancer cell line. The assay is classed as cell-based, human. Particulars: 200 μM, drug alone.
In assay [4] the test system is YUMC-P1 cell line. The description is as above. It is filed as cell-based, human. Particulars: 200 μM, drug alone.
The test system of assay [5] is YUMC-P1 cell line. The conditions noted are these: YUMC-P1 xenograft mice; oral, 13 times for 41 days; doses of Table 3. Here is the method: as §1
Assay [6] has as its system YUMC-H2 cell line. Particulars: YUMC-H2 xenograft mice; oral, 13 times for 41 days; doses of Table 3. Here is the method:
as §1

In the case of `O=C1[O][Pt]2([NH][C@@H]3CCCC[C@H]3[NH]2)[O]C1=O` [oxaliplatin], the cells survived result in the assay with YUMC-C1 cell line [1] is on record as “more than 80%”. For the same compound, in the assay with YUMC-C1 cell line [2], the net tumor weight entry is “did not significantly decrease” and the tumor volume entry was “did not significantly decrease”.
`CNC(=O)c1cc(Oc2ccc(NC(=O)Nc3ccc(Cl)c(C(F)(F)F)c3)cc2)ccn1` [sorafenib]: the cells survived entry in the assay on YUMC-H2 cell line [3] and in the assay on YUMC-P1 cell line [4] was “more than 80%” each time. Moreover, the net tumor weight result in the assay on YUMC-P1 cell line [5] and with YUMC-H2 cell line [6] was “no significant changes” each time. Moreover, the tumor volume entry with YUMC-P1 cell line [5] and with YUMC-H2 cell line [6] was “no significant changes” throughout.
